Data set [1] has as its system human stromal bladder cells. The experiment in a line: Basal growth of human stromal bladder cells. In kind it is cell-based. The conditions noted are these: FIG. 2. From the text:
The Inventors confirmed the presence of vitamin D receptors (VDRs), as previously reported in the literature, on these cells (see below in FIG. 1).
The maximum tolerated dose (MTD) in rats is also listed for each compound (Table 5).

Another data set concerns RT112. The experiment in a line: Proliferation assay using bladder cancer cell lines: RT112. Conditions: 72 h culture, CyQuant proliferation assay. It counts as cell-based, human. As for the experimental part: (§1) Bladder cancer cell lines (T24, RT112, HT1376 and RT4 are human bladder cancer cell lines; NHEK are normal human keratinocytes) were obtained from the European Collection of Cell Cultures (Salisbury, UK). Cells were plated at 3×10^3 per well, in flat bottomed 96-well plates in 100 μl of DMEM medium containing: 5% Fetal Clone 1,50 μg/l gentamicin, 1 mM sodium pyruvate and 1% non-essential amino acids. After culturing for 24 h at 37° C. in 5% CO2, to allow cells to adhere to the plates, VDR ligands (compounds (1)-(14)) were added at concentrations ranging from 100 μM to 0.3 μM in 100 μl of above-mentioned complete medium. After a further 72 h of culture, cell proliferation was measured using a fluorescence-based proliferation assay kit. (CyQuant Cell Proliferation Assay Kit, Molecular Probes, Eugene, Oreg., USA). The IC50 was calculated from the regression curve of the titration data.

A further data set concerns RT4. The data set is described as follows: Proliferation assay using bladder cancer cell lines: RT4. In kind it is cell-based, human. The conditions noted are these: 72 h culture, CyQuant proliferation assay. As to the method:
as §1

A further data set has as its system HT1376. The data set is described as follows: Proliferation assay using bladder cancer cell lines: HT1376. It counts as cell-based. The conditions noted are these: Homo sapiens, HT-1376; 72 h culture, CyQuant proliferation assay. As for the experimental part: as §1
For data set [2], the system named is IFN-γ production by allogeneic PBMC. The experiment in a line: IFN-γ production in the mixed leukocyte response (MLR). In kind it is cell-based. The conditions noted are these: 120 h; MLR of allogeneic PBMC, 5 days, ELISA; read-out: INF-γ IC50. As to the method:
Immature dendritic cells (DC) were prepared as described in Romani, N. et al. (Romani, N. et al. (1996) J. Immunol. Meth. 196:137). IFN-γ production by allogeneic T cell activation in the mixed leukocyte response (MLR) was determined as described in Penna, G., et al., J Immunol., 164: 2405-2411 (2000).
Briefly, peripheral blood mononuclear cells (PBMC) were separated from buffy coats by Ficoll gradient and the same number (3×10^5) of allogeneic PBMC from 2 different donors were co-cultured in 96-well flat-bottom plates. The vitamin D3 compounds were added to each of the cultures.

The nature of data set [3]: Determination of Maximum Tolerated Dose (MTD) in mice. Conditions: mouse, in vivo, po; female C57BL/6 mice, p.o. daily for four days; highest dose without hypercalcemia (serum calcium >10.7 mg/dl).
The subject of a further data set is NHEK. The experiment in a line: Proliferation assay: NHEK normal human keratinocytes. In kind it is cell-based. The conditions noted are these: 72 h culture, CyQuant proliferation assay. As to the method: as §1
A short description of data set [4]: Theoretical maximum absorbable dose (MAD), mouse intestine. The conditions noted are these: calculated using PAMPA permeability. As to the method:
(§2) To evaluate the intestinal absorption potential of selected compounds, the maximum absorbable dose (MAD) in mouse, rat and human intestines was also calculated using a modification of the original equation (Johnson 1996, Hilgers 2003): MAD (mg)=S·Pe·(A/ILV)·SIV·SITT (Eq. 1), where S is the solubility measured at pH 7.4 (mg/ml), Pe is the permeability measured in artificial membranes (PAMPA) or in the apical to basolateral direction of Caco-2 cells (cm/sec), A is the intestinal surface area (cm^2), ILV is the intestinal lumen volume (cm^3), SIV is the small intestinal volume (ml) and SITT is the small intestinal transit time (sec).

Data set [5] deals with T1, human cDNA expressed CYP3A4 (Homo sapiens, UniProt P08684).
T1 construct: purchased Gentest
The data set is described as follows: Metabolic stability (hCYP3A4). It counts as in vitro ADME. The conditions noted are these: 2 μM, 60 min at 37° C. As to the method: Metabolic Stability (hCYP34A4). The relative stability of the substrate was determined by measuring the amount of substrate remaining following incubation with human cDNA expressed CYP3A4 microsomal preparations (Gentest, 6 pmol) against a control microsomal incubation containing no active cytochrome P450. The assay was performed in a 96-well plate format. Each compound was incubated at a concentration of 2 μM for 60 min at 37° C. LC-MS/MS was used for determining the compound remaining after incubation. The results were expressed as % remaining.

Data set [6] is described as follows: Theoretical maximum absorbable dose (MAD), rat intestine. The conditions noted are these: calculated using PAMPA permeability. As to the method: as §2
Data set [7] is described as follows: Permeability by passive diffusion (PAMPA). It counts as in vitro ADME. Conditions: for Papp at 4 h, 10 μM: PAMPA. As to the method: Permeability by Passive Diffusion (PAMPA). Experiments were performed in 96-well acceptor and donor plates using 15% soy lecithin in n-dodecane artificial membranes. The acceptor plate (96 well hydrophobic filter plate (MAIP N45, Millipore)) was prepared by adding 4 μL of artificial membrane material on the top of the filter and the plate was filled with 200 μL of HEPES buffered HBSS (pH 7.4). The donor plate (an indented 96-well plate from p-ION, MA) was filled with 200 μL of HEPES buffered HBSS (pH 7.4) containing 10 μM of the test compounds. The acceptor plate was placed onto the donor plate to form a “sandwich” and was incubated at 37° C. for 4 hours. After the incubation period, acceptor, donor and initial donor solution (reference) were analysed via LC-MS/MS. Data were reported as bilateral Peff in cm×10^−6/sec and % retention in the membrane.

The nature of data set [8]: Theoretical maximum absorbable dose (MAD), human intestine. The conditions noted are these: calculated using PAMPA permeability. As to the method:
as §2

The subject of data set [9] is Renin mRNA in As4.1 cells. The experiment in a line: Renin mRNA inhibition in murine juxtaglomerular cell line As4.1. It counts as cell-based. The conditions noted are these: Mus musculus, 24 h, real time PCR normalized versus β-actin, read-out: Renin mRNA inh.As4.1/wt. As for the experimental part: As4.1 cells (80% subconfluent) were treated in complete medium with compounds of the invention at 10^−8, 10^−9 and 10^−10 M for 24 h. Total RNA was extracted using RNeasy Mini kit (Qiagen); treated with DNase I (Qiagen) and Reverse Transcription Reagent (Applied Biosystems) with Random Examers were used for reverse transcription according to the manufacturers' instructions. Real Time PCR analysis was performed in multiplex using commercially available β-actin VIC-conjugated probe (cat. n. 4352341E, Applied Biosystems) and custom designed mRENIN FAM-conjugated probe (Assay by Design, Applied Biosystems; Forward: […]; Reverse: […]; Probe: FAM-[…]-MGB). Reactions were performed in a 25 μL volume containing 12,5 μl 2× Master Mix (Applied Biosystems), 10 ng/reaction/well cDNA, and 2,5 μM each gene-specific primer. An ABI PRISM 7700 analyzer (Applied Biosystems) was used at 50° C. for 2 minutes and 95° C. for 10 minutes, followed by 40 cycles at 95° C. for 15 seconds and 60° C. for 1 minute. Cycle threshold (Ct) values were exported onto Excel worksheets for analysis. Test cDNA results were normalized versus mouse β-actin housekeeping gene. Fold differences in gene expression between the subtracted versus the unsubtracted populations were expressed using the method of 2^−ΔΔCt. (Table 6)

Data set [10] in a line: Apparent permeability on Caco-2 cells. It counts as in vitro ADME, Human. Conditions: human, Caco-2, Table 8. As for the experimental part: (§3) Apparent Permeability on Caco-2 cells. Human colon adenocarcinoma (Caco-2) cells were obtained from the American Type Culture Collection (Rockville, Md.). Permeability studies were performed using a 24-well format in both transport directions, apical to basolateral (A→B) and basolateral to apical (B→A), on Caco-2 monolayers. Fresh donor solution containing 10 μM test compound was added to either the apical or the basolateral side, while drug-free medium was placed on the opposite side. The 24-transwell plates were placed on a plate shaker at 37° C. After 2 h, the buffer from the receiving and donor chambers were collected and aliquots were analysed via LC-MS/MS. The data reported were the permeability cm·10^−6/sec and the efflux ratio.

A further data set deals with Caco-2 cells. The experiment in a line: Apparent permeability on Caco-2 cells. It counts as in vitro ADME, Human. As for the experimental part: as §3
The nature of data set [11]: Solubility in aqueous buffer. In kind it is physicochemical. The conditions noted are these: kinetic from dmso stock. As to the method:
[…] A 96-well plate format assay was used. […] Solutions were filtered through a 0.22 μm and concentrations of the concentration of the compound in the filtrate was determined using LC-MS/MS in comparison with 1 and 10 μM standards. The measurements were expressed as mM.

Converted amounts (≈) assume the structure as drawn. A value given as a limit tells only on which side of the number the result lay.

T1 sequence (P08684 whole entry): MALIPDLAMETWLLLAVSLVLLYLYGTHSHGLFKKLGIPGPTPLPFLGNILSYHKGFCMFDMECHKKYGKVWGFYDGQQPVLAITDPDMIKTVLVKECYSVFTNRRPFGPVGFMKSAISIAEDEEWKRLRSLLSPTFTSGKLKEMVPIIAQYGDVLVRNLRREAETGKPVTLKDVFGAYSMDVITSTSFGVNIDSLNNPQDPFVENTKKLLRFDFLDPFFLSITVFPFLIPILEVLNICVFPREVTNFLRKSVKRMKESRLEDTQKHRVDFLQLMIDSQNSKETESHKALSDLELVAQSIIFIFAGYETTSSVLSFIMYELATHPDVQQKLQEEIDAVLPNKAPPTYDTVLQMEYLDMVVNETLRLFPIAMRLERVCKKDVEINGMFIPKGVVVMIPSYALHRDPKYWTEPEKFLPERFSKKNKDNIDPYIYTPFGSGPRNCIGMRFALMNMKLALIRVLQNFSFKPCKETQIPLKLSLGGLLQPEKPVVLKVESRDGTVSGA

`C=C1/C(=C\C=C2/CCC[C@]3(C)C([C@H](C)CCCC(C)(C)O)CC[C@@H]23)C[C@@H](O)C[C@@H]1O` (stereo partly shown) [1,25(OH)2D3, 1,25-dihydroxycholecalciferol, reference compound]: the “inhibiting the basal growth of bladder cells” value in data set [1] is “effective”. The IC50 with RT112 was determined as 28.7 µM; with RT112 (Homo sapiens, RT-112, 72 h) it was 19 µM; with RT4 it was 26 µM; in the data set on RT4 (Homo sapiens, RT-4, 72 h), 45 µM; with HT1376, 50 µM; in data set [2] it was 0.0496 nM. The compound also came in with an IC50 in the data set on NHEK of 4.5 µM. In [3], the MTD at 4 days is 0.3 µg/kg.

`CC(C)(O)CCCC1(C2=CCC3/C(=C/C=C4/CC(O)C[C@H](O)C4)CCC[C@]23C)CC1` (stereo partly drawn) [Compound 9, 1α,25-Dihydroxy-16-ene-20-cyclopropyl-19-nor-cholecalciferol]: in data set [4], the “MAD (ug) mouse (PAMPA)” value was 23.61 µg. The IC50 with RT112 (Homo sapiens, RT-112) is > 30 µM; with RT4 (Homo sapiens, RT-4), 9.9 µM; in data set [2], 0.031 nM; in the data set on NHEK it was 6.1 µM; in [9], 0.00878 µM. The same compound had a CYP3A4 stability in data set [5] of 33.3 % remaining. Further, in data set [6], the “MAD (ug) rat (PAMPA)” value is 115.08 µg. Moreover, in [7] (% retention in the membrane), the “PAMPA % Memb” value is 97.1%. For the same compound, the Papp at 4 h, 10 μM is 36 ×10⁻⁶ cm/s in data set [7] (pH 7.4, 10 μM, pH 7.4, 37° C., 4 hours, Table 9) and 36 ×10⁻⁶ cm/s in [7] (pH 7.4, Table 8). The MTD at 4 days in data set [3] was 1 µg/kg. Moreover, in [8], the “MAD (ug) human (PAMPA)” value is 8023.11 µg. In addition, the Papp A→B at 2 h, 10 μM in data set [10] (apical to basolateral, read-out: Caco2 Papp_AB) stood at 4.82 ×10⁻⁶ cm/s. Moreover, the Papp B→A at 2 h, 10 μM in data set [10] (basolateral to apical, read-out: Caco2 Papp_BA) came out at 6.46 ×10⁻⁶ cm/s. Besides, in the data set with Caco-2 cells (apical to basolateral, 10 μM, 2 h), the “Papp_A > B” value was 4.8 cm·10^−6/sec. The Mass Bal A > B with Caco-2 cells (apical to basolateral, unit assumed) was 36.7%. Further, the Mass Bal B > A in the data set with Caco-2 cells (basolateral to apical) was 89.1%. Further, the “Papp_B >” value in the data set on Caco-2 cells (basolateral to apical, 10 μM, 2 h) is reported as 6.5 cm·10^−6/sec. The compound also yielded a solubility at 2 h in data set [11] (pH 7, 2 h) of 19.9 µM (≈ 8.25 µg/mL). In [11] (pH 7, 24 h), this compound came in with a solubility at 24 h of 21.6 µM (≈ 8.96 µg/mL). Further, the solubility in [11] (pH 7.4, aqueous buffer) is 8.27 µg/mL (≈ 19.9 µM).

The record behind these values is patent US20080318911A1, “20-Cyclopropyl, 26,27-Alkyl/Haloalkyl Vitamin D3 Compounds and Methods of Use Thereof” (BIOXELL S.P.A., priority 2004, published 2008).
